Results: ChEMBL document CHEMBL5050846 (2020)
The source made the active and inactive calls. The calls are words filed in the database; no cut-off is given here.

Tests used:
Rattus norvegicus [1] = assay: Effect on neurobehavioral function in female rats at 30 mg/kg, po administered a single dose at 2 hrs; type: toxicity, organism-based; conditions: in vivo
Rattus norvegicus [2] = species: Rattus norvegicus; assay: Effect on sleep architecture of rats assessed as decrease in rapid eye movement sleep early in sleep period; type: functional, organism-based
Canis familiaris [3] = assay: Effect on blood pressure in dogs at 2 to 300 mg/kg, iv; type: toxicity, organism-based, Canis lupus familiaris; conditions: dog, in vivo, dose 2-300 mg/kg
Canis familiaris [4] = assay: Effect on QRS duration of heart in dogs at 10 mg/kg, iv; type: toxicity, organism-based, Canis lupus familiaris; conditions: dog, in vivo
Rattus norvegicus [5] = assay: Effect on respiratory function in male rats assessed as change in airway resistance at 6 mg/kg, iv; type: toxicity, organism-based; conditions: in vivo
[6] = Toxicity in Sprague-Dawley rats at 30 to 1000 mg/kg, po assessed as maternal toxicity; type: organism-based; conditions: rat, in vivo, dose 30-1000 mg/kg
[7] = Half-life in dog at 0.5 mg/kg, po; type: ADME, organism-based, Canis lupus familiaris; conditions: in vivo
[8] = Brain concentration in male rats at 25 mg/kg, po at 2 hrs using 1% methylcellulose; type: ADME, organism-based; conditions: rat, read-out: Drug uptake
Rattus norvegicus [9] = assay: Effect on neurobehavioral function in female rats at 30 to 3000 mg/kg, po; type: toxicity, organism-based; conditions: in vivo, dose 30-3000 mg/kg
Canis familiaris [10] = assay: Effect on QTc interval of heart in dogs at 2 to 300 mg/kg, iv; type: toxicity, organism-based, Canis lupus familiaris; conditions: dog, in vivo, dose 2-300 mg/kg
[11] = Oral bioavailability in dog at 0.5 mg/kg; type: ADME, organism-based, Canis lupus familiaris; conditions: in vivo
[12] = Toxicity in Sprague-Dawley rats at 30 to 1000 mg/kg, po assessed as developmental toxicity; type: organism-based; conditions: rat, in vivo, dose 30-1000 mg/kg
Rattus norvegicus [13] = assay: Effect on respiratory function in female rats assessed as increase in PenH at 300 to 2000 mg/kg, po; type: toxicity, organism-based; conditions: in vivo, dose 300-2000 mg/kg
Rattus norvegicus [14] = assay: Effect on neurobehavioral function in female rats assessed as increase in foot splay width at 15 mg/kg, po administered a single dose; type: toxicity, organism-based; conditions: in vivo
[15] = Toxicity in Beagle dogs at 3 to 300 mg/kg, po measured by 10-day extrapolatory dose-range finding study; type: organism-based, Canis lupus familiaris; conditions: dog, in vivo, 240 h, dose 3-300 mg/kg
[16] = Toxicity in rats at 10 to 1000 mg/kg, po assessed as developmental toxicity; type: organism-based; conditions: rat, in vivo, dose 10-1000 mg/kg
Rattus norvegicus [17] = assay: Protection against amphetamine-induced psycho-motor activity in rat at 1 to 10 mg/kg, po; type: functional, organism-based; conditions: dose 1-10 mg/kg
CYP3A5 = CYP3A5 (Homo sapiens, UniProt P20815); assay: Inhibition of recombinant human CYP3A5 in human liver microsomes at 1 uM relative to control; type: ADME
[18] = Toxicity in female Sprague-Dawley rats at 10 to 1000 mg/kg, po assessed as effect on fertility; type: organism-based; conditions: rat, in vivo, dose 10-1000 mg/kg
[19] = molecular target: T1, pregnane X receptor (PXR, NR1I2) (Homo sapiens, UniProt O75469); assay: Activation of human pregnane X receptor at 10 uM relative to control; conditions: read-out: Activity
T1 sequence (O75469 whole entry): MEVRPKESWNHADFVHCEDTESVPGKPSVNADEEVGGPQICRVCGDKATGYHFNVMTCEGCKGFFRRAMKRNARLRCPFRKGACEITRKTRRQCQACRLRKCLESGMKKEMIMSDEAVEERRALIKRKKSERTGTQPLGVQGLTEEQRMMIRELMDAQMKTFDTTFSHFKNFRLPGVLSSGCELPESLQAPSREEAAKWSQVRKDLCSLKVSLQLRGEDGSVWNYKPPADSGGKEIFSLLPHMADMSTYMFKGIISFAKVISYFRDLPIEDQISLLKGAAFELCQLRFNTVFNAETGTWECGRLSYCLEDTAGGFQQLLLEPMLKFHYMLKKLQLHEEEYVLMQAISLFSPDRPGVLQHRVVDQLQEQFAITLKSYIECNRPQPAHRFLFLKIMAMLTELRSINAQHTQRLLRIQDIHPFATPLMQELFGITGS

[20] = Toxicity in rabbits at 30 to 1000 mg/kg, po assessed as developmental toxicity; type: organism-based, Oryctolagus cuniculus; conditions: rabbit, in vivo, dose 30-1000 mg/kg
Rattus norvegicus [21] = type: functional, organism-based; conditions: dose 3-30 mg/kg
[22] = Plasma concentration in male rats at 25 mg/kg, po at 2 hrs using 90% PEG400; type: ADME, organism-based; conditions: rat
Rattus norvegicus [23] = type: functional, organism-based; conditions: dose 10.0 mg/kg
[24] = Toxicity in Sprague-Dawley rats at 30 to 2000 mg/kg, po assessed as micronuclei induction in bone marrow; type: organism-based; conditions: rat, in vivo, dose 30-2000 mg/kg
[25] = Toxicity in female Sprague-Dawley rats at 10 to 1000 mg/kg, po; type: organism-based; conditions: rat, in vivo, dose 10-1000 mg/kg
[26] = Clearance in dog at 0.5 mg/kg, po; type: ADME, organism-based, Canis lupus familiaris; conditions: in vivo
[27] = Toxicity in rabbits at 30 to 1000 mg/kg, po assessed as maternal toxicity; type: organism-based, Oryctolagus cuniculus; conditions: rabbit, in vivo, 672 h, dose 30-1000 mg/kg, time 4 weeks
Hepatocyte = assay: Induction of […] mRNA production in primary human hepatocytes at 10 uM relative to control; type: functional, cell-based
[28] = Plasma concentration in male rats at 25 mg/kg, po at 2 hrs using 1% methylcellulose; type: ADME, organism-based; conditions: rat
[29] = Brain concentration in male rats at 25 mg/kg, po at 2 hrs using 90% PEG400; type: ADME, organism-based; conditions: rat, read-out: Drug uptake
CYP3A4 = CYP3A4 (Homo sapiens, UniProt P08684); assay: Inhibition of recombinant human CYP3A4 in human liver microsomes at 1 uM relative to control; type: ADME
Rattus norvegicus [30] = assay: Effect on respiratory function in female rats assessed as increase in PenH at 30 mg/kg, po; type: toxicity, organism-based; conditions: in vivo
Rattus norvegicus [31] = species: Rattus norvegicus; assay: Effect on sleep architecture of rats assessed as increase in rapid eye movement sleep late in sleep period; type: functional, organism-based
[32] = Induction of CYP3A4 mRNA production in primary human hepatocytes at 10 uM relative to control; type: functional, Hepatocyte
Canis familiaris [33] = assay: Effect on PR interval of heart in dogs at 2 to 300 mg/kg, iv; type: toxicity, organism-based, Canis lupus familiaris; conditions: dog, in vivo, dose 2-300 mg/kg
Rattus norvegicus [34] = species: Rattus norvegicus; assay: Effect on sleep architecture of rats assessed as increase in slow wave sleep; type: functional, organism-based
Canis familiaris [35] = assay: Effect on QTc interval of heart in dogs at 10 mg/kg, iv; type: toxicity, organism-based, Canis lupus familiaris; conditions: dog, in vivo
Canis familiaris [36] = assay: Effect on QRS duration of heart in dogs at 2 to 300 mg/kg, iv; type: toxicity, organism-based, Canis lupus familiaris; conditions: dog, in vivo, dose 2-300 mg/kg
Rattus norvegicus [37] = assay: Effect on neurobehavioral function in female rats at 30 mg/kg, po administered a single dose at 24 hrs; type: toxicity, organism-based; conditions: in vivo
Canis familiaris [38] = assay: Effect on core body temperature in dogs at 2 to 300 mg/kg, iv; type: toxicity, organism-based, Canis lupus familiaris; conditions: dog, in vivo, dose 2-300 mg/kg
Canis familiaris [39] = assay: Effect on heart rate in dogs at 10 mg/kg, iv; type: toxicity, organism-based, Canis lupus familiaris; conditions: dog, in vivo
[40] = Cmax in rat; type: ADME; conditions: in vivo
[41] = Brain to plasma ratio in rat; type: ADME; conditions: read-out: BPR
[42] = Half-life in rat; type: ADME; conditions: in vivo
Rattus norvegicus [43] = type: functional, organism-based; conditions: dose 100.0 mg/kg
Rattus norvegicus [44] = assay: Protection against harmaline-induced tremor in rats at 10 mg/kg; type: functional, organism-based
[45] = AUClast in rat; type: ADME; parameters: time 0 - last; conditions: in vivo
[46] = Tmax in rat; type: ADME; conditions: in vivo

CYP3A5, sequence (P20815 whole entry): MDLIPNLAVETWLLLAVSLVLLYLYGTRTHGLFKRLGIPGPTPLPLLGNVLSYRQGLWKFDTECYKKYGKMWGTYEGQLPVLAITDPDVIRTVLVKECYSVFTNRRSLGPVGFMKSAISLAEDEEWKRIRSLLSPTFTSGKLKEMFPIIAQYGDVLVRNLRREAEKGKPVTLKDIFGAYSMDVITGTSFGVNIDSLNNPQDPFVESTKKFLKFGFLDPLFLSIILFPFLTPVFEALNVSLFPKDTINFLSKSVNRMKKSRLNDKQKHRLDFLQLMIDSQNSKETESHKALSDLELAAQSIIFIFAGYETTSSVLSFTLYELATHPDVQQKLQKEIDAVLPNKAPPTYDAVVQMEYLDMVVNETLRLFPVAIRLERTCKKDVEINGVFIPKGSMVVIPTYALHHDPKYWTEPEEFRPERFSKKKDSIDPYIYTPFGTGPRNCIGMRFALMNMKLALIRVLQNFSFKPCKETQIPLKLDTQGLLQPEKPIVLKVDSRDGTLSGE
CYP3A4, sequence (P08684 whole entry): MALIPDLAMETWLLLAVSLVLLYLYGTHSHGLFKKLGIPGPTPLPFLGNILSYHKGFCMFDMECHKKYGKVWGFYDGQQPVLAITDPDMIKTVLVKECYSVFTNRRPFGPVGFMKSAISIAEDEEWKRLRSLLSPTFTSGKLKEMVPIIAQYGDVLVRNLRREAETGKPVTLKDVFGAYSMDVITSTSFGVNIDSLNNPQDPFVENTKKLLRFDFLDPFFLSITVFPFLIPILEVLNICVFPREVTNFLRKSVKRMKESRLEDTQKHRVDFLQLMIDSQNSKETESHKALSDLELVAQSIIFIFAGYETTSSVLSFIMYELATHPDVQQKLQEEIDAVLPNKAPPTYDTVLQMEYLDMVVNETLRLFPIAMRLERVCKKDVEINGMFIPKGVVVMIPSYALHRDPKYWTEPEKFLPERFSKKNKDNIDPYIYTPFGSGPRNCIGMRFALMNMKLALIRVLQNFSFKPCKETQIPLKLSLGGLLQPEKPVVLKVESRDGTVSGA

For `CC(C)c1ccc(CC(=O)N[C@H](C)c2ccc(OCC(F)(F)F)cn2)cc1` [SUVECALTAMIDE], the Activity (Rattus norvegicus [1]) was “Non-Toxic”, the Activity (Rattus norvegicus [2]) was “Active” and the Activity (Canis familiaris [3]) was “Non-Toxic”. The Activity (Canis familiaris [4]) was “Non-Toxic”, the Activity (Rattus norvegicus [5]) was “Non-Toxic” and the Activity [6] was “Toxic”. For the same molecule, the t1/2 [7] was 3.1 h, the concentration at 2 h [8] was 3.1 µM and the Activity (Rattus norvegicus [9]) was “Non-Toxic”. The Activity (Canis familiaris [10]) was “Non-Toxic”, the bioavailability [11] was 47% and the Activity [12] was “Toxic”. For the same molecule, the Activity (Rattus norvegicus [13]) was “Non-Toxic”, the Activity (Rattus norvegicus [14]) was “Toxic” and the Activity [15] was “Non-Toxic”. For the same molecule, the Activity [16] was “Non-Toxic”, the Activity (Rattus norvegicus [17]) was “Active” and the inhibition at 1 µM (CYP3A5) was greater than 80%. The NOAEL [18] was no less than 1000 mg/kg/day, the activity at 10 µM [19] was no more than 34% and the Activity [20] was “Toxic”. For the same molecule, the Activity (Rattus norvegicus [21]) was “Active”, the concentration at 2 h [22] was 3.3 µM and the Activity (Rattus norvegicus [23]) was “Active”. The Activity [24] was “Non-Toxic”, the NOAEL [25] was 100 mg/kg/day and the CL/F [26] was 0.4 mL/min/kg. For the same molecule, the Activity [27] was “Toxic”, the Activity (Hepatocyte) was “Active” and the concentration at 2 h [28] was 6.3 µM. For the same molecule, the concentration at 2 h [29] was 1.8 µM, the inhibition at 1 µM (CYP3A4) was greater than 80% and the Activity (Rattus norvegicus [30]) was “Non-Toxic”. The Activity (Rattus norvegicus [31]) was “Active”, the Activity [32] was “<=10%” and the Activity (Canis familiaris [33]) was “Non-Toxic”. The Activity (Rattus norvegicus [34]) was “Active”, the Activity (Canis familiaris [35]) was “Non-Toxic” and the Activity (Canis familiaris [36]) was “Non-Toxic”. The Activity (Rattus norvegicus [37]) was “Non-Toxic”, the Activity (Canis familiaris [38]) was “Non-Toxic” and the Activity (Canis familiaris [39]) was “Non-Toxic”.
Molecule `N#Cc1ccc([C@@]2(C3CC3)c3cc(Cl)ccc3NC(=O)N2CC(F)(F)F)cc1` has a Cmax [40] of 3 µM, a Kp [41] of 1.1 and a half-life [42] of 5.9 h.
With `CCC1(C)CC(=O)NC1=O` (configuration not stated) the Activity (Rattus norvegicus [43]) was “Active”.
For `CC1(C)C[C@@H](CN2CCC(F)(CNC(=O)c3cc(Cl)cc(Cl)c3)CC2)CCO1`, the Activity (Rattus norvegicus [44]) was “Active”.
With `C[C@@H](NC(=O)Cc1ccc(C2CC2)cc1)c1ccc(OCC(F)(F)F)cn1` the Cmax [40] was 7.5 µM, the AUC(0-t) [45] was 30 µM·h and the Tmax [46] was 0.3 h. It also gave a Kp [41] of 0.27 and a half-life [42] of 1.5 h.
